Measurements published in a melting point compilation (Tetko et al.; mined from patent text by program, amines drawn as free bases though some values may be those of a salt).
Residues, ends and D or L forms follow the SMILES beside them. *: point of attachment. OiPr = CC(C)O*

Compound	melting point [°C]
C[C@@H]1CN(CC(=O)Nc2ccccc2Cl)C[C@H](C)N1c1ncnc2sccc12	206 to 207
CCN1CCCC(N2C(=O)c3ccc([N+](=O)[O-])cc3C2=O)C1 (stereo unspecified)	> 300
CCCC(CCC)C(=O)NC(C)C(=O)OC (stereo unspecified)	72 to 73
CC(C)OC(=O)C(C)NC(=O)C(CC(=O)O)NC(=O)C(C)N (stereo not drawn) (H-Ala-Asp-Ala-OiPr; configuration not given here)	219 to 221
O=C(NO)c1ccc(CNC(=O)c2[nH]c(-c3ccccc3)cc2-c2ccc(C(F)(F)F)cc2)cc1	137 to 138
CCOP(=O)(CCCCc1ccc2ccccc2c1O)OCC	90 to 91
CCOC(=O)c1cnn2c(-c3cccnc3)ccnc12	170 to 171
CC(C)C1COC(=O)N1C(=O)CCCCOCc1ccccc1 (stereo unspecified)	133
NC(=NCC(F)(F)F)Nc1ccn(CCCCO)n1	105 to 106
CCOC(=O)NN=Cc1c[nH]c(Cc2ccccc2)n1	184 to 185
CC(C)c1nccc2c(C(C)C(=O)O)cccc12 (stereo unspecified)	138
CC(c1c[nH]cn1)c1cccc(CO)c1O (stereo unspecified)	135 to 136
c1ccc(-c2cccc3[nH]c4c(c23)CCNCC4)cc1	> 250
O=C(O)c1cc(=O)c2c(O)cccc2[nH]1	298 to 301
CC1C(=O)N(c2cccc(Cl)c2)N=C1N (stereo unspecified)	138
Nc1cc([N+](=O)[O-])ccc1CO	126 to 128
CC1(C)Nc2ccc(C#N)cc2C(NC(=NC#N)Nc2ccccc2)C1O (stereo unspecified)	218 to 219
COC(=O)C(C)(N)Cc1csc2ccccc12 (stereo unspecified)	44 to 45
OCc1ccccc1SCc1cc2c(cc1O)CCCO2	140 to 141
CCC(=CC(CNC(=O)c1ccc(C)nc1)=NO)C(C)[N+](=O)[O-] (stereo unspecified)	150 to 151
CCOC(=O)C(C)(C)Oc1ccc(-c2ccc(CCNC(=O)Cc3ccccc3)cc2)cc1	< 20
Oc1ccc2c(c1)Sc1ccccc1CN2	172 to 174
NN1CCC[C@H]1C(=O)O	153 to 154
Cc1nc(NC(=O)CCCc2ccccc2)sc1C(=O)NCc1ccccc1	45 to 46
CCc1noc(-c2cn(-c3ccccc3OCc3ccccc3)cn2)n1	106
CCCCCCCCCCCCCCCCCCCCOC(=O)P(=O)(OC)OC	53 to 54
COCCOc1ccc(C#CC2(O)CN3CCC2CC3)c(CO)c1 (stereo unspecified)	98.5 to 100

Compound	melting point [°C]
N=C(Nc1ccc2ccncc2c1)c1cccs1	178
Cc1ccc(S(=O)(=O)Oc2ccc(S(=O)(=O)c3c(-c4ccccc4)cn4ccccc34)cc2)cc1	168
CC1COC(C(=O)C(C)(C)C)C(C(=O)C(C)(C)C)O1 (stereo unspecified)	123
CCCCC(=O)N(Cc1ccc(-c2ccccc2-c2nnnn2C(c2ccccc2)(c2ccccc2)c2ccccc2)cc1)C(C(=O)O)C(C)C (stereo unspecified)	170
O=C1c2ccccc2C(=O)N1CCCN1CCC(C(c2ccccc2)c2ccccc2)CC1	104 to 106
O=C1C(c2ccccc2)=C(c2ccccc2)C(=O)N1c1cccc(Cl)c1	144 to 145
C=C(C)n1c(C)c(-c2ccc(F)cc2)c2cccnc21	84 to 87
O=C1CCC(c2ccccc2)(c2ccccc2)[C@@H]2CN(C(=O)CC3=CSCSC3)C[C@H]12 (racemic)	211
COC(=O)c1cc(N2CCC2)c(C(F)(F)F)cc1N	80 to 86
CC(=O)Nc1ccc(CC(=O)NCCc2ccc3[nH]cc(CC#N)c3c2)cc1	188 to 189
O=C(NC1CC1)c1cccc(-c2cccn3c(=O)n(Cc4cccc(C(F)(F)F)c4)nc23)c1	157 to 158
NS(=O)(=O)c1ccc(NN=C2C(=O)Nc3cc4c(cc32)OCO4)cc1	> 220
O=C1Nc2ccc(C(F)(F)F)cc2C1c1ncnc2nn(C3CCCC3)cc12 (stereo unspecified)	292 to 293
CC(C)(C)OC(=O)N1CCC(C(=O)O)(C2CCCCC2)CC1	156
CN1C(=O)CCC(C)(C)c2cc([N+](=O)[O-])ccc21	115
O=C1Nc2cccnc2N(C(=O)NCCN2CCC(CNCC3CCCCC3)C2)c2ccccc21 (stereo unspecified)	166 to 167
N#CC1(N2CCN(c3ccc(N4CC(CCC(N)=O)OC4=O)cc3F)CC2)CCOCC1 (stereo unspecified)	134 to 137
NC(=O)c1cc(N)ccc1SSc1ccc(N)cc1C(N)=O	188 to 190
CCOC(=O)CCCSc1nccc(NC(N)=NCC(F)(F)F)n1	120 to 122
COc1ccc(C2=NC(C)(C)C(c3cccs3)C2)cc1 (stereo unspecified)	84
c1ccc(CNc2nc(-c3cccs3)nc3ccccc23)cc1	158 to 163
O=C(Oc1ccc(O)c([N+](=O)[O-])c1)c1ccccc1	97
N#CCN1C(=O)N(c2ccc(C#N)c(C(F)(F)F)c2)C(=O)C1(CO)CO	157 to 158
N#Cc1ccc2[nH]cc(CCN3C(=O)c4ccccc4C3=O)c2c1	217 to 221
Cn1nc(C2CCN(C#N)CC2)c2ccc(F)cc21	133 to 136
CCCn1cc(C(=O)OCC)c(=O)c2ccoc21	130

Now from value to compound:

melting point [°C]	Compound
174	COCCn1nc(C)c(-c2ccc3c(c2)NC(=O)CO3)c1-c1ccc(F)cc1
119 to 120	COCCOc1ccc(CCCC(=O)O)c(Oc2ncc(C(F)(F)F)cc2Cl)c1
210 to 215	COc1nc(C)cc(C)c1C(=O)O
219	COc1cc(N)ccc1S(=O)(=O)n1c(=O)n(C2CCCCCC2)c2cc(Cl)ccc21
140	CN(S(C)(=O)=O)S(=O)(=O)N=C=O
208	CCCCc1nc2c(n1Cc1ccc(-c3ccccc3S(N)(=O)=O)cc1)C(=O)C(F)CS2 (stereo unspecified)
65 to 66	COCCN(c1cccc2cc(C(=O)NCCSC(c3ccccc3)(c3ccccc3)c3ccccc3)[nH]c12)S(=O)(=O)c1cccs1
139 to 140	CCCCCCOc1ccc(OC)c(Cc2cnc(N)nc2N)c1
88 to 90.5	CONS(=O)(=O)c1ccc(Cl)c(C(F)(F)F)c1
131 to 133	CCCc1cc(Cl)c(OC(C(=O)O)c2ccccc2)c(C(C)=O)c1O (stereo unspecified)
98 to 103	COc1cccc2c1OC(COS(=O)(=O)c1ccc(C)cc1)C2 (stereo unspecified)
196 to 197	CN(C(=O)c1cccc2ccccc12)[C@H](Cc1ccc(C(F)(F)F)cc1)[C@@H](O)c1ccc(F)cc1 (racemic)
220	CCCCc1nc2cc(C)c(C)cc2n1Cc1ccc(C(=O)O)cc1
107 to 109	O=C1CCN=C(c2ccccc2F)c2cc(Cl)ccc21
120	COc1cc(C(=O)O)c(OC)cc1C
224 to 227	CNCC1CN(c2c(F)cc3c(=O)c(C(=O)O)cn(-c4ccc(F)cc4F)c3c2F)CCO1 (stereo unspecified)
> 250	CNC(=O)Cn1c(-c2ccc(Cl)cc2)nc2ccc(Cl)nc21
178 to 180	COc1ccc(C(=O)N2Cc3ccccc3CC2C(=O)O)cc1 (stereo unspecified)
132 to 133	O=C(Nc1cccnc1)N1CCN(c2nc(-c3cccc(Cl)c3Cl)cs2)CC1
186	O=C(OCCn1cnc2c(Cl)nc3ccccc3c21)c1ccccc1
105 to 106	CN(C)c1nnc(-c2ccc3occ(-c4cccc(OC(F)(F)F)c4)c3c2)o1
178 to 179	CC(C)(C)c1cc(-c2cncn2CCCCl)cc(C(C)(C)C)c1O
157 to 158	CS(=O)(=O)c1ccc(Oc2cc(OC3CCOCC3)c3[nH]c(C4=NCC(CC(=O)NCCO)S4)cc3c2)cn1 (stereo unspecified)
161 to 162	COc1cccc2sc(NC(=O)COC(C)=O)nc12

melting point [°C]	Compound
210 to 212	COc1ccc(/C=N/Nc2cc(=O)[nH]c3cc(Cl)ccc23)cc1OC1CCCC1
93 to 95	CCON=C(C)c1cccc(Oc2nc(OC)cc(OC)n2)c1C(=O)OC
108 to 110	C#CCN(C(=O)CCl)c1c(C)nc(N(C)C)nc1C
132 to 134	COc1ccc(NC(=O)CCCn2nnnc2C)cc1
227 to 228	O=C1c2c(O)cncc2C(=O)c2c(Cl)ccc(F)c21
166 to 167	CCOC(=O)COc1c(F)cc(S(=O)(=O)CCNS(=O)(=O)c2ccc(Cl)cc2)cc1F
> 400	CCCc1cccc2nc3c(=O)[nH][nH]c(=O)c3c(O)c12
204	CSc1nc(-n2cnc([N+](=O)[O-])n2)c2cc(Br)ccc2n1
190 to 192	O=S(=O)(Nc1ccc2c(OCc3nc4ccccc4s3)cccc2c1)C(F)(F)F
158 to 164	COc1ccc(-c2ccc3c(Cl)c(OC)ccc3c2)cc1
82 to 83	CCCCNc1cc(CN(Cc2ccccc2)C(=O)OCC)cc(S(N)(=O)=O)c1Oc1ccccc1
169 to 171	CCCc1nc2cccc(C(=O)O)c2n1Cc1ccc(-c2ccccc2-c2nc(=O)o[nH]2)cc1
235 to 238	CC(C(O)c1ccccc1)n1nnc2cc3c(cc2c1=O)OC1CCCN1C3=O (stereo unspecified)
179 to 180	CCn1ncc2c(NCc3ccc(OC)cc3)c3ccccc3nc21
200	CCCCC1=C(C#N)C(c2cccc3nonc23)c2c[nH]nc2N1 (stereo unspecified)
74 to 75	COc1ccc(COC(=O)c2cc([N+](=O)[O-])c3ccccc3c2OS(=O)(=O)C(F)(F)F)cc1
176 to 177	COc1nc2cc(Cl)c(Cl)c(N(CC(C)O)S(C)(=O)=O)c2nc1OC (racemic)
157 to 162	C=C(CNc1ccc2ncnc(Nc3cccc(Br)c3)c2c1)C(=O)OC
246 to 247	COc1ccc2c(c1)C(=O)C(=O)N2c1ccc(F)cc1
156 to 158	O=C(O)CCc1cc(Cl)ccc1C(=O)O
165 to 166	CS(=O)(=O)c1ccc(Oc2cc(OC3CCOCC3)c3[nH]c(C4=NCC(CCO)S4)cc3c2)nc1 (stereo unspecified)
101 to 102	COC1(c2cccc(Sc3cc(C)c4c(ccc(=O)n4C)c3)c2)CCOCC1
152 to 153	COC(=O)C1=CC(C)(N)NC(C2CC2)=N1 (stereo unspecified)
144 to 145	CCCn1nc2c(N)nc3c(c2c1CCCc1cc(C)no1)CCCC3
